Measurements reported in ChEMBL document CHEMBL1201861, “Genomics of Drug Sensitity in Cancer screening data, Wellcome Trust Sanger Institute”.

Assays:
Assay in all cases: cells
Conditions in all cases: Homo sapiens
SK-MEL-2 = assay type: functional, cell-based;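 also: growth inhibition of human SK-MEL-2 cells measured with a cell viability assay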
Description: SANGER: Inhibition of human SK-MEL-2 cell growth in a cell viability assay.

HDLM-2 = assay type: functional, cell-based;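 also: cell viability assay measuring suppression of HDLM-2 proliferation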
Description: SANGER: Inhibition of human HDLM-2 cell growth in a cell viability assay.

COR-L88 = assay type: functional, cell-based;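 also: growth inhibition of COR-L88 cells, read out with a cell viability assay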
Description: SANGER: Inhibition of human COR-L88 cell growth in a cell viability assay.

TE-12 = assay type: functional, cell-based;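 also: growth inhibition of TE-12 cells, read out by a cell viability assay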
Description: SANGER: Inhibition of human TE-12 cell growth in a cell viability assay.

D-263MG = assay type: functional, cell-based
Description: SANGER: Inhibition of human D-263MG cell growth in a cell viability assay.

TGBC1TKB = assay type: functional, cell-based;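 also: growth inhibition of TGBC1TKB cells, read out by a cell viability assay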
Description: SANGER: Inhibition of human TGBC1TKB cell growth in a cell viability assay.

TE-5 = assay type: functional, cell-based;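 also: inhibition of cell growth, read out by a cell viability assay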
Description: SANGER: Inhibition of human TE-5 cell growth in a cell viability assay.

HEL = assay type: functional, cell-based;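 also: growth inhibition of HEL cells, read out with a cell viability assay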
Description: SANGER: Inhibition of human HEL cell growth in a cell viability assay.

KU812 cell line = assay type: functional, cell-based;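 also: growth inhibition of KU812 cells, read out with a cell viability assay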
Description: SANGER: Inhibition of human KU812 cell growth in a cell viability assay.

LNCaP-Clone-FGC = assay type: functional, cell-based
Description: SANGER: Inhibition of human LNCaP-Clone-FGC cell growth in a cell viability assay.

HAL-01 = assay type: functional, cell-based;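 also: growth inhibition of human HAL-01 cells, read out with a cell viability assay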
Description: SANGER: Inhibition of human HAL-01 cell growth in a cell viability assay.

IST-MEL1 = assay type: functional, cell-based;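 also: growth inhibition of the cell line, read out with a cell viability assay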
Description: SANGER: Inhibition of human IST-MEL1 cell growth in a cell viability assay.

NB10 = assay type: functional, cell-based;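 also: growth inhibition of NB10 cells, read out by a cell viability assay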
Description: SANGER: Inhibition of human NB10 cell growth in a cell viability assay.

COLO-684 = assay type: functional, cell-based
Description: SANGER: Inhibition of human COLO-684 cell growth in a cell viability assay.

ES6 = assay type: functional, cell-based;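 also: growth inhibition of human ES6 cells, read out with a cell viability assay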
Description: SANGER: Inhibition of human ES6 cell growth in a cell viability assay.

COLO-668 = assay type: functional, cell-based
Description: SANGER: Inhibition of human COLO-668 cell growth in a cell viability assay.

no-11 = assay type: functional, cell-based;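 also: growth inhibition of human NO-11 cells, read out with a cell viability assay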
Description: SANGER: Inhibition of human no-11 cell growth in a cell viability assay.

KE-37 = assay type: functional, cell-based;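 also: growth inhibition of KE-37 cells, read out with a cell viability assay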
Description: SANGER: Inhibition of human KE-37 cell growth in a cell viability assay.

DOHH-2 = assay type: functional, cell-based;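 also: growth inhibition of human DOHH-2 cells, read out with a cell viability assay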
Description: SANGER: Inhibition of human DOHH-2 cell growth in a cell viability assay.

HD-MY-Z = assay type: functional, cell-based;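 also: growth inhibition of HD-MY-Z cells, read out with a cell viability assay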
Description: SANGER: Inhibition of human HD-MY-Z cell growth in a cell viability assay.

SHP77 = assay type: functional, cell-based, SHP-77;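 also: growth inhibition of human SHP-77 cells measured by a cell viability assay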
Description: SANGER: Inhibition of human SHP-77 cell growth in a cell viability assay.

C2BBe1 = assay type: functional, cell-based;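 also: growth inhibition of C2BBe1 cells, read out through a viability assay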
Description: SANGER: Inhibition of human C2BBe1 cell growth in a cell viability assay.

AM-38 = assay type: functional, cell-based;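 also: growth inhibition of AM-38 cells of human origin, read out by a cell viability assay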
Description: SANGER: Inhibition of human AM-38 cell growth in a cell viability assay.

SBC-1 = assay type: functional, cell-based;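 also: cell viability assay measuring growth inhibition of the SBC-1 cell line, IC50 being the concentration that halves growth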
Description: SANGER: Inhibition of human SBC-1 cell growth in a cell viability assay.

NEC8 = assay type: functional, cell-based;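 also: growth inhibition of human NEC8 cells, read out by a cell viability assay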
Description: SANGER: Inhibition of human NEC8 cell growth in a cell viability assay.

COLO-800 = assay type: functional, cell-based;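 also: growth inhibition of COLO-800 cells, read out with a cell viability assay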
Description: SANGER: Inhibition of human COLO-800 cell growth in a cell viability assay.

LAMA-84 = assay type: functional, cell-based;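 also: growth inhibition of LAMA-84 cells, read out with a cell viability assay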
Description: SANGER: Inhibition of human LAMA-84 cell growth in a cell viability assay.

HCC2218 = assay type: functional, cell-based;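 also: cell viability assay read-out, with IC50 given as the concentration that inhibits growth of the cell line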
Description: SANGER: Inhibition of human HCC2218 cell growth in a cell viability assay.

NCI-H1770 = assay type: functional, cell-based;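 also: growth inhibition of NCI-H1770 cells determined with a viability readout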
Description: SANGER: Inhibition of human NCI-H1770 cell growth in a cell viability assay.

SCH = assay type: functional, cell-based;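 also: growth inhibition of human SCH cells, read out in a cell viability assay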
Description: SANGER: Inhibition of human SCH cell growth in a cell viability assay.

MPP-89 = assay type: functional, cell-based;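 also: growth inhibition of human MPP-89 cells, read out with a cell viability assay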
Description: SANGER: Inhibition of human MPP-89 cell growth in a cell viability assay.

IST-MES1 = assay type: functional, cell-based;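 also: growth inhibition of IST-MES1 cells, measured with a cell viability assay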
Description: SANGER: Inhibition of human IST-MES1 cell growth in a cell viability assay.

NCI-H69 = assay type: functional, cell-based;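 also: growth inhibition of the cell line, read out with a cell viability assay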
Description: SANGER: Inhibition of human NCI-H69 cell growth in a cell viability assay.

NCI-H747 = assay type: functional, cell-based;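 also: growth inhibition of human NCI-H747 cells, read out by a cell viability assay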
Description: SANGER: Inhibition of human NCI-H747 cell growth in a cell viability assay.

A498 = assay type: functional, cell-based;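 also: growth inhibition of human A498 cells, read out with a cell viability assay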
Description: SANGER: Inhibition of human A498 cell growth in a cell viability assay.

SW872 = assay type: functional, cell-based;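 also: growth inhibition of SW872 cells, read out by a viability assay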
Description: SANGER: Inhibition of human SW872 cell growth in a cell viability assay.

EKVX = assay type: functional, cell-based;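 also: growth inhibition of human EKVX cells, read out with a cell viability assay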
Description: SANGER: Inhibition of human EKVX cell growth in a cell viability assay.

no-10 = assay type: functional, cell-based;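 also: growth inhibition of no-10 cells, read out with a cell viability assay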
Description: SANGER: Inhibition of human no-10 cell growth in a cell viability assay.

RH-1 = assay type: functional, cell-based;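 also: growth inhibition of human RH-1 cells, read out with a cell viability assay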
Description: SANGER: Inhibition of human RH-1 cell growth in a cell viability assay.

TE-1 = assay type: functional, cell-based
Description: SANGER: Inhibition of human TE-1 cell growth in a cell viability assay.

Lu-65 = assay type: functional, cell-based;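 also: growth inhibition of Lu-65 cancer cells, read out by a cell viability assay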
Description: SANGER: Inhibition of human LU-65 cell growth in a cell viability assay.

SNU1 = assay type: functional, cell-based;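 also: growth inhibition of human NCI-SNU-1 cells, measured with a cell viability assay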
Description: SANGER: Inhibition of human NCI-SNU-1 cell growth in a cell viability assay.

KM-H2 = assay type: functional, cell-based;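 also: growth inhibition of KM-H2 cells, read out by a cell viability assay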
Description: SANGER: Inhibition of human KM-H2 cell growth in a cell viability assay.

NCI-H23 = assay type: functional, cell-based;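 also: cell viability assay measuring growth inhibition of NCI-H23 cells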
Description: SANGER: Inhibition of human NCI-H23 cell growth in a cell viability assay.

J-RT3-T3-5 = assay type: functional, cell-based;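 also: cell viability assay measuring growth inhibition of human J-RT3-T3-5 cells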
Description: SANGER: Inhibition of human J-RT3-T3-5 cell growth in a cell viability assay.

SH-4 = assay type: functional, cell-based;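 also: growth inhibition of SH-4 cells, read out with a cell viability assay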
Description: SANGER: Inhibition of human SH-4 cell growth in a cell viability assay.

SF-126 = assay type: functional, cell-based;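 also: growth inhibition of human SF126 cells, read out with a cell viability assay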
Description: SANGER: Inhibition of human SF126 cell growth in a cell viability assay.

GAK = assay type: functional, cell-based;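 also: cell growth inhibition read out by a cell viability assay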
Description: SANGER: Inhibition of human GAK cell growth in a cell viability assay.

KNS-81-FD = assay type: functional, cell-based;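 also: growth inhibition of KNS-81-FD cells, read out with a cell viability assay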
Description: SANGER: Inhibition of human KNS-81-FD cell growth in a cell viability assay.

A704 = assay type: functional, cell-based;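 also: growth inhibition of human A704 cells, read out with a cell viability assay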
Description: SANGER: Inhibition of human A704 cell growth in a cell viability assay.

ATN-1 = assay type: functional, cell-based;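 also: growth inhibition of human ATN-1 cells, read out with a cell viability assay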
Description: SANGER: Inhibition of human ATN-1 cell growth in a cell viability assay.

GI-1 = assay type: functional, cell-based;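 also: growth inhibition of human GI-1 cells, measured with a cell viability readout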
Description: SANGER: Inhibition of human GI-1 cell growth in a cell viability assay.

SW 954 = assay type: functional, cell-based;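 also: growth inhibition of SW954 human cancer cells, read out as cell viability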
Description: SANGER: Inhibition of human SW954 cell growth in a cell viability assay.

COLO-824 = assay type: functional, cell-based
Description: SANGER: Inhibition of human COLO-824 cell growth in a cell viability assay.

ES8 = assay type: functional, cell-based;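 also: growth inhibition of human ES8 cells, read out with a cell viability assay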
Description: SANGER: Inhibition of human ES8 cell growth in a cell viability assay.

SW684 = assay type: functional, cell-based
Description: SANGER: Inhibition of human SW684 cell growth in a cell viability assay.

NOS-1 = assay type: functional, cell-based
Description: SANGER: Inhibition of human NOS-1 cell growth in a cell viability assay.

ETK-1 = assay type: functional, cell-based
Description: SANGER: Inhibition of human ETK-1 cell growth in a cell viability assay.

EW-13 = assay type: functional, cell-based
Description: SANGER: Inhibition of human EW-13 cell growth in a cell viability assay.

U-87 MG = assay type: functional, cell-based, U-87MG ATCC
Description: SANGER: Inhibition of human U-87-MG cell growth in a cell viability assay.

QIMR-WIL = assay type: functional, cell-based
Description: SANGER: Inhibition of human QIMR-WIL cell growth in a cell viability assay.

EW-16 = assay type: functional, cell-based
Description: SANGER: Inhibition of human EW-16 cell growth in a cell viability assay.

MHH-NB-11 = assay type: functional, cell-based
Description: SANGER: Inhibition of human MHH-NB-11 cell growth in a cell viability assay.

EW-11 = assay type: functional, cell-based
Description: SANGER: Inhibition of human EW-11 cell growth in a cell viability assay.

K5 = assay type: functional, cell-based
Description: SANGER: Inhibition of human K5 cell growth in a cell viability assay.

Structure (SMILES): Cn1c(=O)n(-c2ccc(C(C)(C)C#N)cc2)c2c3cc(-c4cnc5ccccc5c4)ccc3ncc21 [DACTOLISIB]
- IC50 (SK-MEL-2): 76.7 nM
- IC50 (HDLM-2): > 2000 nM
- IC50 (COR-L88): 848 nM
- IC50 (TE-12): 141 nM
- IC50 (D-263MG): 29.3 nM
- IC50 (TGBC1TKB): 23.1 nM
- IC50 (TE-5): 46.8 nM
- IC50 (HEL): 109 nM
- IC50 (KU812 cell line): 68.7 nM
- IC50 (LNCaP-Clone-FGC): 37.6 nM
- IC50 (HAL-01): 55.8 nM
- IC50 (IST-MEL1): 18.8 nM
- IC50 (NB10): 240 nM
- IC50 (COLO-684): 33.6 nM
- IC50 (ES6): 92.8 nM
- IC50 (COLO-668): 706 nM
- IC50 (no-11): 113 nM
- IC50 (KE-37): 58.8 nM
- IC50 (DOHH-2): 46.4 nM
- IC50 (HD-MY-Z): 44.9 nM
- IC50 (SHP77): > 2000 nM
- IC50 (C2BBe1): 75 nM
- IC50 (AM-38): 69.3 nM
- IC50 (SBC-1): < 7.81 nM
- IC50 (NEC8): 67.2 nM
- IC50 (COLO-800): 32.9 nM
- IC50 (LAMA-84): 35.9 nM
- IC50 (HCC2218): 6.61 nM
- IC50 (NCI-H1770): 327 nM
- IC50 (SCH): 67.1 nM
- IC50 (MPP-89): 25.3 nM
- IC50 (IST-MES1): 237 nM
- IC50 (NCI-H69): 427 nM
- IC50 (NCI-H747): 119 nM
- IC50 (A498): 75.2 nM
- IC50 (SW872): 64.6 nM
- IC50 (EKVX): 101 nM
- IC50 (no-10): 201 nM
- IC50 (RH-1): 54.7 nM
- IC50 (TE-1): 223 nM
- IC50 (Lu-65): 1620 nM
- IC50 (SNU1): 22 nM
- IC50 (KM-H2): 171 nM
- IC50 (NCI-H23): 219 nM
- IC50 (J-RT3-T3-5): 23 nM
- IC50 (SH-4): 75.2 nM
- IC50 (SF-126): 19.4 nM
- IC50 (GAK): 98.9 nM
- IC50 (KNS-81-FD): 19.5 nM
- IC50 (A704): 55.6 nM
- IC50 (ATN-1): 73.9 nM
- IC50 (GI-1): 60.3 nM
- IC50 (SW 954): 234 nM
- IC50 (COLO-824): 689 nM
- IC50 (ES8): 10.9 nM
- IC50 (SW684): 196 nM
- IC50 (NOS-1): 30.1 nM
- IC50 (ETK-1): 7.88 nM
- IC50 (EW-13): 95.8 nM
- IC50 (U-87 MG): 301 nM
- IC50 (QIMR-WIL): 30.6 nM
- IC50 (EW-16): 18 nM
- IC50 (MHH-NB-11): 629 nM
- IC50 (EW-11): 96.9 nM

Structure (SMILES): CCCS(=O)(=O)Nc1ccc(F)c(C(=O)c2c[nH]c3ncc(Cl)cc23)c1F [PLX-4720]
- IC50 (SK-MEL-2): > 10000 nM
- IC50 (HDLM-2): > 10000 nM
- IC50 (COR-L88): > 10000 nM
- IC50 (TE-12): > 10000 nM
- IC50 (D-263MG): > 10000 nM
- IC50 (TGBC1TKB): > 10000 nM
- IC50 (TE-5): > 10000 nM
- IC50 (HEL): > 10000 nM
- IC50 (KU812 cell line): > 10000 nM
- IC50 (LNCaP-Clone-FGC): > 10000 nM
- IC50 (HAL-01): > 10000 nM
- IC50 (IST-MEL1): > 10000 nM
- IC50 (NB10): > 10000 nM
- IC50 (COLO-684): > 10000 nM
- IC50 (ES6): > 10000 nM
- IC50 (COLO-668): > 10000 nM
- IC50 (no-11): > 10000 nM
- IC50 (KE-37): > 10000 nM
- IC50 (DOHH-2): > 10000 nM
- IC50 (HD-MY-Z): > 10000 nM
- IC50 (SHP77): > 10000 nM
- IC50 (C2BBe1): > 10000 nM
- IC50 (AM-38): > 10000 nM
- IC50 (SBC-1): > 10000 nM
- IC50 (NEC8): > 10000 nM
- IC50 (COLO-800): > 10000 nM
- IC50 (LAMA-84): > 10000 nM
- IC50 (HCC2218): 878 nM
- IC50 (NCI-H1770): > 10000 nM
- IC50 (SCH): > 10000 nM
- IC50 (MPP-89): > 10000 nM
- IC50 (IST-MES1): > 10000 nM
- IC50 (NCI-H69): > 10000 nM
- IC50 (NCI-H747): > 10000 nM
- IC50 (A498): > 10000 nM
- IC50 (SW872): > 10000 nM
- IC50 (EKVX): > 10000 nM
- IC50 (no-10): > 10000 nM
- IC50 (RH-1): > 10000 nM
- IC50 (K5): 761 nM
- IC50 (TE-1): > 10000 nM
- IC50 (Lu-65): > 10000 nM
- IC50 (SNU1): > 10000 nM
- IC50 (KM-H2): > 10000 nM
- IC50 (NCI-H23): > 10000 nM
- IC50 (J-RT3-T3-5): > 10000 nM
- IC50 (SH-4): 414 nM
- IC50 (SF-126): > 10000 nM
- IC50 (GAK): > 10000 nM
- IC50 (KNS-81-FD): > 10000 nM
- IC50 (A704): > 10000 nM
- IC50 (ATN-1): > 10000 nM
- IC50 (GI-1): > 10000 nM
- IC50 (SW 954): > 10000 nM
- IC50 (COLO-824): > 10000 nM
- IC50 (ES8): > 10000 nM
- IC50 (SW684): > 10000 nM
- IC50 (NOS-1): > 10000 nM
- IC50 (ETK-1): > 10000 nM
- IC50 (EW-13): > 10000 nM
- IC50 (U-87 MG): > 10000 nM
- IC50 (QIMR-WIL): > 10000 nM
- IC50 (EW-16): > 10000 nM
- IC50 (MHH-NB-11): > 10000 nM
- IC50 (EW-11): > 10000 nM
